The values below are quoted from earlier work in article PMC6152717, “Novel Tacrine-Scutellarin Hybrids as Multipotent Anti-Alzheimer’s Agents: Design, Synthesis and Biological Evaluation” (Molecules : A Journal of Synthetic Chemistry and Natural …, 2017).

Marks after values point to notes of the source that are not given here.

Series [1] relates to AChE from human erythrocytes (hAChE). As to conditions: read-out: AChE IC50 ± SEM; cited from earlier work.
In series [2] the test system is BChE from equine serum (eqBChE). As to conditions: read-out: BChE IC50 ± SEM; cited from earlier work.
The conditions of series [3]: printed in DPPH EC50 column; cited from earlier work. (In general: The DPPH test is a chemical assay of radical scavenging.)
Series [4] deals with Electric eel AChE (EeAChE). Particulars: cited from earlier work.

Regarding `COc1cc2oc(-c3cccc(OCC(=O)NCCCCCCNc4c5c(nc6cc(Cl)ccc46)CCCC5)c3)cc(=O)c2c(OC)c1OC` [Compound 2], the half-maximal inhibitory concentration (IC50) is 32.5 ± 0.25 nM in series [1]; 968.9 ± 8.26 nM in series [2]; 47.2 nM in series [4] (Electric eel AChE activity, read-out: AChE IC50 ± SEM (converted)). Further, the ORAC-FL antioxidant power in series [3] was 0.47 ± 0.03 ^a µM of Trolox/µM of tested compound. Further, in series [4] (electric eel AChE vs equine serum BChE), the “SI (BChE IC50/AChE IC50)” value is 20.5.

As a reminder, the IC50 is the concentration that inhibits the measured activity by half.
